{"source": "patent US11098336B2", "about": "“Biosynthesis of bioorthogonal amino acids” (The Regents of the University of California, priority 2017, dated 2021)", "key": {"BesD from S. cattleya": {"biological_target": "BesD from S. cattleya (Streptantibioticus cattleyicolor, UniProt G8XHD5)", "sequence (G8XHD5 whole entry)": "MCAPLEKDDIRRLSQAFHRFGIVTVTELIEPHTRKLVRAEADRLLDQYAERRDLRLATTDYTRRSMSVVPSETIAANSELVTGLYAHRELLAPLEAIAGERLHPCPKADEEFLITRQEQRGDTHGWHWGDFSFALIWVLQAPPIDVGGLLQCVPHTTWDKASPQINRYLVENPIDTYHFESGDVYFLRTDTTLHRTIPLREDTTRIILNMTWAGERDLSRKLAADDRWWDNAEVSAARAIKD", "assay": "BesD enzyme-coupled assay that reports on succinate production", "type": "biochemical, Streptomyces cattleya", "from_the_text": "Activity of BesD from S. cattleya on L-lysine was first screened using an enzyme-coupled assay that reports on succinate production."}, "BesC": {"biological_target": "T1, BesC (Streptantibioticus cattleyicolor, UniProt F8JJ25)", "T1 construct": "made in house", "T1 sequence (F8JJ25 whole entry)": "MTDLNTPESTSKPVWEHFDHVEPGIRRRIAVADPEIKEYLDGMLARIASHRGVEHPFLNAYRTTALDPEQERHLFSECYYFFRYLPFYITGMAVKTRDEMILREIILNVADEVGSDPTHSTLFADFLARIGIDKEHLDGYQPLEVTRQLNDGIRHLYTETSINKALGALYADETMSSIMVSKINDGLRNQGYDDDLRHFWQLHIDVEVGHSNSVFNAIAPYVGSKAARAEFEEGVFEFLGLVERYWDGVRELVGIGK", "assay": "BesC coupled reaction with BesD, cofactors and lysine", "type": "biochemical, Streptomyces cattleya", "settings": "cofactors", "from_the_text": "To further characterize BesC, we then tested the ability of BesC to produce 4-Cl-allygllycine in vitro. Addition of Fe(II) to purified apo-enzyme supports the observed reaction, while omission of Fe(II) results in no reaction, supporting the Fe-dependence of the enzyme."}, "BesB": {"biological_target": "T2, BesB (Streptantibioticus cattleyicolor, UniProt G8XHD7)", "T2 construct": "made in house", "T2 sequence (G8XHD7 whole entry)": "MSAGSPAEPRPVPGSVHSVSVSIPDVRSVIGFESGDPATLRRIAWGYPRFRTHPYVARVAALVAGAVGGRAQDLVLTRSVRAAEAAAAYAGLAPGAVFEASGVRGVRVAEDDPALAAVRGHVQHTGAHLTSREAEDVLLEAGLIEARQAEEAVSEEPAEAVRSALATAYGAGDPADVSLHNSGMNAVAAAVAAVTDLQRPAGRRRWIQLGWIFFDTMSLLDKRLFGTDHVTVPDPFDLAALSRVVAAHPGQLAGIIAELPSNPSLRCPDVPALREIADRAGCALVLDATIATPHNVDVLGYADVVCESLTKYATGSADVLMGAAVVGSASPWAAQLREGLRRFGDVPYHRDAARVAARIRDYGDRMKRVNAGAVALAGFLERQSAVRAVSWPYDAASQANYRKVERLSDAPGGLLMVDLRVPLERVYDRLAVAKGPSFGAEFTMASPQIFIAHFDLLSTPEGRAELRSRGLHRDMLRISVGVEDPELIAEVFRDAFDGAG", "assay": "BesB terminal-alkyne (Pra) formation in vitro; isomerization, D2O exchange and PLP-conjugate trapping", "type": "biochemical, Streptomyces cattleya", "settings": "for formation of Pra by BesB from substrate: in vitro; for binding to BesB as PLP-conjugate: chemical reduction with imine-reducing reagents", "procedure": "We next turned our attention to formation of the terminal-alkyne. BesB belongs to a family of proteins that utilize pyrodoxyal-5′-phosphate (PLP) as cofactor. Incubating purified BesD, BesC, and BesB in the presence of iron, ascorbate, lysine, and PLP was sufficient to produce Pra in vitro. This order of events is […] to how terminal-alkynes are synthesized chemically, since biosynthesis of Pra involves elimination of an alkyl-halide to a terminal-alkyne. Terminal desaturations have previously only been observed on fatty acids and catalyzed by O2/di-iron dependent fatty acid desaturases. […] From in vitro characterization, we also found it was necessary for the amino acid substrate to be halogenated at the Cγ position.\n(§1) While formation of allene-quinonoid can be mechanistically explained, there is no precedence of an enzyme catalyzed allene-alkyne isomerization. One possibility is that BesB forms α-allenyl-glycine enzymatically and isomerization occurs after α-allenyl-glycine is released from PLP. […] Another possibility is BesB produces and releases α-allenyl-glycine, and is subsequently enzymatically isomerized. […] Finally, we explored the possibility of α-allenyl-glycine binding to BesB as a PLP-conjugate by chemically reducing the whole complex with imine-reducing reagents."}, "BesA": {"biological_target": "BesA (Streptantibioticus cattleyicolor, UniProt G8XHD8)", "sequence (G8XHD8 whole entry)": "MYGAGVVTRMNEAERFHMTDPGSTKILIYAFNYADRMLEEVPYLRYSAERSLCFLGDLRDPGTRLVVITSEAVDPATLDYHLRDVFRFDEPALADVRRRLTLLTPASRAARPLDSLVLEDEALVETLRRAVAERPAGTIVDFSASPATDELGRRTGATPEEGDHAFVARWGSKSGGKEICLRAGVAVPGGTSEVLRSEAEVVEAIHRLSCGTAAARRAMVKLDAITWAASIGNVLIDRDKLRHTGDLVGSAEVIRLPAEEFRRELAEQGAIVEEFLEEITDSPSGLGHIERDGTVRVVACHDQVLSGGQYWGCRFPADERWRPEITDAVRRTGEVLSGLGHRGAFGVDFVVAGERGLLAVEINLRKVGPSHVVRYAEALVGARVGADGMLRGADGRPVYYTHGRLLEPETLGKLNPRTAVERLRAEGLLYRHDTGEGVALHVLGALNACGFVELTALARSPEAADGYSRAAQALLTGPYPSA", "assay": "BesA dipeptide formation in vitro with glutamate and ATP, substrate specificity", "type": "biochemical, Streptomyces cattleya", "settings": "for activity as BesA substrate (ligation to glutamate): reacted with glutamate, ATP", "from_the_text": "We then explored the specifity of BesA by reacting glutamate with norvaline, allylglycine, and the remaining 19 canonical amino acids.\nBesA shares homology to carboxylate-amine ligases, which form amides between amines and carboxylates through an ATP-dependent mechanism."}, "BesE": {"biological_target": "BesE (Streptantibioticus cattleyicolor, UniProt F8JJ27)", "sequence (F8JJ27 whole entry)": "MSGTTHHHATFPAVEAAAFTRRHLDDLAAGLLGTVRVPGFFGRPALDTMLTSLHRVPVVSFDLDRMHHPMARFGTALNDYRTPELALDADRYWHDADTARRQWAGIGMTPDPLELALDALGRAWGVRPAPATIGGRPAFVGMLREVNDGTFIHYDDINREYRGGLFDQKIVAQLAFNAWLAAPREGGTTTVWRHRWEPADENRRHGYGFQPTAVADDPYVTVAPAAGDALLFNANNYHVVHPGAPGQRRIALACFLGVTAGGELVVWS", "assay": "BesE hydroxylation in vitro in the presence of ascorbate and α-KG", "type": "biochemical, Streptomyces cattleya", "from_the_text": "Knockout strain of putative amino acid hydroxylase, BesE, was only capable of producing Pra. […] This lead us to believe that there might be an amino acid carrier that serves as the true substrate for BesE. Through comparative metabolomics, we were able to identify a metabolite enriched in S. cattleya ΔbesE over wildtype. This compound was also present, but at low concentration, in S. cattleya ΔbesA. We identified this compound as having mass consistent with a Pra-Glu dipeptide. When this compound was fragmented we were able to detect characteristic fragments consistent with an amide bond cleavage, supporting evidence that this compound is a Pra-Glu dipeptide.\nThe last dedicated enzyme involved in the biosynthesis of βes is BesE. Once we had identified Pra-Glu as the product of BesA, it became apparent that the true substrate of BesE is a Pra-Glu dipeptide. S. cattleya ΔbesB, ΔbesC, ΔbesD, and ΔbesE were unable to produce measurable amounts of the dipeptides in vivo. In comparison, ΔbesA was still able to produce βes-Glu but at lower titers when compared to S. cattleya wildtype."}, "cystathionine-γ-lyase": {"test_system": "cystathionine-γ-lyase", "settings": "previously identified; cited from earlier work"}, "[1]": {"assay": "spontaneous isomerization of free α-allenyl-glycine in buffered solution / D2O", "type": "physicochemical", "from_the_text": "as §1"}}, "data": [{"smiles": "NCCCC[C@H](N)C(=O)O", "note": "[L-lysine]", "values": [{"measurement": "BesD activity with substrate (rate of NADH production)", "setting": "BesD from S. cattleya", "value": "greatest"}, {"measurement": "accepted as BesC substrate", "setting": "BesC", "value": "accepts lysine as a substrate directly to form allylglycine"}]}, {"smiles": "C=C(Br)CC(N)C(=O)O", "note": "(stereo not shown) [4-Br-allylglycine]", "values": [{"measurement": "formation of Pra by BesB from substrate", "setting": "BesB", "value": "able to form Pra"}]}, {"smiles": "N=C(N)NCCC[C@H](N)C(=O)O", "note": "[arginine]", "values": [{"measurement": "BesD activity with substrate (rate of NADH production)", "setting": "BesD from S. cattleya", "value": "no activity"}]}, {"smiles": "C=C(Cl)CC(N)C(=O)O", "note": "(stereo not shown) [4-Cl-allylglycine]", "values": [{"measurement": "formation of Pra by BesB from substrate", "setting": "BesB", "value": "able to form Pra"}]}, {"smiles": "CCC[C@H](N)C(=O)O", "note": "[norvaline]", "values": [{"measurement": "activity as BesA substrate (ligation to glutamate)", "setting": "BesA", "value": "Pra and Cys were the only two amino acids to show any measurable activity"}, {"measurement": "BesD activity with substrate (rate of NADH production)", "setting": "BesD from S. cattleya", "value": "no activity"}]}, {"smiles": "N[C@@H](CS)C(=O)O", "note": "[Cys, cysteine]", "values": [{"measurement": "activity as BesA substrate (ligation to glutamate)", "setting": "BesA", "value": "measurable activity"}]}, {"smiles": "C#CCC(N)C(=O)O", "note": "(stereo not shown) [Pra, propargylglycine]", "values": [{"measurement": "Km for Pra relative to Km for Cys", "setting": "BesA; BesA substrate", "value": 10, "unit": "fold lower"}, {"measurement": "kcat, Pra compared with Cys", "setting": "BesA; BesA substrate", "value": "comparable"}, {"measurement": "activity as BesA substrate (ligation to glutamate)", "setting": "BesA", "value": "measurable activity"}, {"measurement": "binding to BesB as PLP-conjugate", "setting": "BesB", "value": "able to observe Pra as a PLP bound species"}, {"measurement": "reaction with BesE (hydroxylation)", "setting": "BesE", "value": "no reaction was observed"}, {"measurement": "inhibition of PLP proteins including cystathionine-γ-lyase", "setting": "cystathionine-γ-lyase", "value": "mechanistic, suicide inhibitor"}]}, {"smiles": "C#CC[C@H](NC(=O)CC[C@H](N)C(=O)O)C(=O)O", "note": "[Glu-Pra dipeptide, γ-Glu-α-Pra]", "values": [{"measurement": "reaction with BesE (hydroxylation)", "setting": "BesE", "value": "able to hydroxylate"}]}, {"smiles": "C=C=CC(N)C(=O)O", "note": "(stereo not drawn) [α-allenyl-glycine, reference compound]", "values": [{"measurement": "binding to BesB as PLP-conjugate", "setting": "BesB", "value": "unable to bind BesB"}, {"measurement": "D2O exchange in the presence of BesB", "setting": "BesB; incubated with BesB in D2O", "value": "neglible D2O exchange"}, {"measurement": "isomerization by BesB", "setting": "BesB; incubated with BesB in D2O", "value": "no isomerization"}, {"measurement": "spontaneous formation of Pra", "setting": "[1]; buffered solution, 24 h, room temperature", "value": "did not produce detectable amounts of Pra"}, {"measurement": "exchange with solvent", "setting": "[1]; incubated in D2O, no enzyme", "value": "negligible exchange"}]}, {"smiles": "C=CCC(N)C(=O)O", "note": "(stereo not shown) [allylglycine]", "values": [{"measurement": "activity as BesA substrate (ligation to glutamate)", "setting": "BesA", "value": "Pra and Cys were the only two amino acids to show any measurable activity"}, {"measurement": "formation of Pra by BesB from substrate", "setting": "BesB", "value": "not when allylglycine is a substrate"}]}]}
